# Test results: DBAASP
# “And” between values parts separate entries of the source, which are not always exact repeats. Equal values may be shown once.
# Assays:
# Assay in all cases: ≥ marks a high value that may be exact or a test limit, other limits are often not marked, values filed in µg/mL are converted to µM
# [1] = system: Escherichia coli W3110
# [2] = system: Staphylococcus aureus
# [3] = system: Streptococcus mutans UA159
# [4] = system: Streptococcus sobrinus ATCC 33478
# [5] = system: Streptococcus sanguinis NY101
# [6] = system: Pseudomonas aeruginosa PAK
# [7] = system: Enterococcus faecalis
# [8] = system: Staphylococcus aureus 930918-3
# [9] = system: Pseudomonas aeruginosa MR3007
# [10] = system: Staphylococcus aureus ATCC 33591
# [11] = system: Staphylococcus aureus SA113
# [12] = system: Acinetobacter baumannii ATCC 19606
# [13] = system: Pseudomonas aeruginosa CUN 4158-02
# [14] = system: Escherichia coli ATCC 25922
# [15] = system: Brucella abortus 9.49 (per-)
# [16] = system: Bordetella bronchiseptica CUN 11844-99
# [17] = system: Yersinia pestis KIM pYV
# [18] = system: Escherichia coli ATCC 23716
# [19] = system: Staphylococcus aureus ATCC 43300
Structure (SMILES),MIC [1],MIC [2],MIC [3],MIC [4],MIC [5],MIC [6],MIC [7],MIC [8],MIC [9],MIC [10],MIC [11],MIC [12],MIC [13],MIC [14],MIC [15],MIC [16],MIC [17],MIC [18],MIC [19]
CC[C@H](C)[C@H](NC(=O)[C@H](Cc1ccccc1)NC(=O)[C@H](Cc1cnc[nH]1)NC(=O)[C@H](CCCCN)NC(=O)[C@@H](NC(=O)[C@H](Cc1ccccc1)NC(=O)[C@@H]1CCCN1C(=O)[C@H](Cc1ccc(O)cc1)NC(=O)[C@@H]1CCCN1C(=O)[C@H](Cc1ccccc1)NC(=O)[C@H](Cc1cnc[nH]1)NC(=O)[C@H](CC(C)C)NC(=O)[C@H](Cc1cnc[nH]1)NC(=O)[C@H](Cc1ccccc1)NC(=O)[C@H](Cc1cnc[nH]1)NC(=O)[C@@H](N)Cc1ccccc1)[C@@H](C)CC)C(=O)N[C@@H](Cc1cnc[nH]1)C(=O)N[C@@H](CCCN=C(N)N)C(=O)N[C@@H](Cc1ccccc1)C(N)=O [FHFHLHFPYPFIKHFIHRF],≥ 48.7 µM,> 195 µM,12.5 µM,24.3 µM,24.3 µM,≥ 48.7 µM,≥ 97.4 µM,,,,,,,,,,,,
CC[C@H](C)[C@H](NC(=O)[C@H](CCCCN)NC(=O)[C@H](CCCCN)NC(=O)[C@H](CC(C)C)NC(=O)[C@H](CCCCN)NC(=O)[C@H](CCC(=O)O)NC(=O)[C@H](CCCCN)NC(=O)[C@@H](NC(=O)[C@@H](N)CCCCN)[C@@H](C)CC)C(=O)NCC(=O)N[C@@H](CCC(N)=O)C(=O)N[C@@H](CCCCN)C(=O)N[C@H](C(=O)N[C@@H](CCC(N)=O)C(=O)NCC(=O)O)[C@@H](C)CC [KIKEKLKKIGQKIQG],,,,,,,,≥ 143 µM,≥ 143 µM,≥ 143 µM,,,,,,,,,
CC[C@H](C)[C@H](NC(=O)[C@H](CCCCN)NC(=O)[C@H](CCCCN)NC(=O)[C@H](CO)NC(=O)[C@@H](NC(=O)CNC(=O)[C@H](CCCN=C(N)N)NC(=O)[C@H](CC(C)C)NC(=O)[C@@H](NC(=O)[C@@H](N)CCCCN)[C@@H](C)CC)C(C)C)C(=O)N[C@@H](CCSC)C(=O)N[C@@H](CCCN=C(N)N)C(=O)N[C@@H](CCCN=C(N)N)C(=O)N[C@H](C(=O)N[C@@H](CO)C(=O)N[C@@H](CCCCN)C(=O)N[C@@H](CC(=O)O)C(=O)N[C@H](C(=O)N[C@@H](CC(C)C)C(=O)N[C@H](C(=O)NCC(=O)N[C@@H](CCCCN)C(=O)N[C@@H](CCCCN)C(N)=O)[C@@H](C)O)[C@@H](C)CC)[C@@H](C)CC [KILRGVSKKIMRRISKDILTGKK],,24 µM and 48 µM,,,,,,,,,≥ 95.9 µM,3 µM,5.99 µM,5.99 µM,1.5 µM,0.375 µM,≥ 48 µM,5.99 µM and 4.68 µM,> 95.9 µM
